How the values were obtained:
T cell = T cell activation in response to anti-CD3/28 stimulation; type: cell-based
Excerpt: (§1) Since some MMPs (MMP-9) is/are constitutively expressed and prothrombin synthesis and secretion might be induced by VEGF-A, prothrombin can cleaved to thrombin by an MMP, e.g., MMP-9 and thrombin, in turn, generates C5a from locally produced C5. The MMP inhibitor alternatively could exert its inhibitory effect on VEGF-A induced EC growth by the pathway that couples C3aR/C5aR signal transduction back to VEGFR2.

ECs = test: Proliferation of ECs in response to VEGF-A stimulation (thrombin/MMP inhibitors); type: cell-based
Excerpt: as §1

HUVEC = test: Complement mRNA transcripts in HUVEC by qPCR; type: cell-based; details: added C3a or C5a
Method: FIG. 33 illustrates charts showing qRT-PCR analysis of C3, factor B and factor D transcripts from HUVEC under hypoxia. A) HUVEC treated with TNF-α, IL-1, and IFN-γ. Blue bars represent samples after treatment. B-C) HUVEC stimulated with C3a (10 ng/ml for 2 hr) or C5a (10 ng/ml for 30 min) Blue bars represent control without C3a/C5a stimulation while red bars represent samples after stimulation. D) HUVEC incubated for 1 hr with FCCP+IAA. Blue bars represent control without hypoxia treatment while yellow bars represent two samples after hypoxia treatment.
We next conversely assessed how transducing C3aR/C5aR signals into ECs affects endogenous EC complement production and whether it is connected with “classical” EC responses. We incubated HUVEC with 1) inflammatory cytokines, 2) the mitochondrial uncoupler protonophore carbonyl cyanide p-(trifluoromethoxy)phenylhydrazone (FCCP)+iodoacetate (IAA) (which mimics hypoxia), or 3) C3a or C5a, after which we assayed complement mRNA transcripts by qPCR. […]
ECs and leukocytes locally synthesize C3/fB/fD/C5 and the elicited C3a/C5a signal through C3aR/C5aR on the same cells to amplify this synthesis. To determine whether ECs locally synthesize AP complement components, we added IL-1/IFN-γ/TNF-α to HUVEC, 1 hr after which we quantified C3 and fB transcripts by qPCR. […]

MS-1 ECs = test: Growth of MS-1 ECs with VEGF-A or IL-6; type: cell-based, murine; details: IL-6 alone
Method: FIG. 27 illustrates plots showing the growth of ECs in response to VEGF induces C3aR/C5aR signaling via an IL-6 and Stat3 dependent mechanism. VEGF-A was added to serum starved MS-1 cells in the absence or presence of anti-IL-6 neutralizing mAb (2 μg/ml) and growth was quantified at 24, […] and 72 hr.
FIG. 28 illustrates plots showing the growth of serum starved MS-1 cells in the absence or presence of C3aR-A/C5aR-A (10 ng/ml each) and IL-6 (10 ng/ml) at 24, 48 and 72 hr.
For studies with bEnd.3 and MS-1 cells, 5×10^4 cells were plated in 24-well plates and allowed to adhere for 24 hr. Following culturing in 0.5% FBS with DMEM for another 24 hours, the cells were treated as described in the FIG. legends. Growth was quantified manually at 24, 48 and 72 hr with trypan blue. At least 95% of cells were viable in all experiments. VEGF-A was used at a concentration of 30 ng/ml, C3a and C5a at 1 ug/ml, and […] at I ug/ml.
Numerous past studies have linked VEGF with both IL-6 and p-Stat3 our prior studies by ourselves has shown that C5a induces IL-6 and that IL-6 signaling is interconnected with C3aR/C5aR signaling. To determine if the linkage between VEGF and C3aR/C5aR signaling in ECs involves IL-6, we incubated MS-1 ECs with 1) VEGF-A alone, IL-6 alone, or VEGF-A plus anti-IL-6 mAb, or with 2) IL-6 alone or IL-6 plus C3aR-A/C5aR-A, and assayed cell growth. […]

Stat3 = Stat3 phosphorylation in serum starved MS-1 cells; type: cell-based, murine; details: growth factor alone
Method: FIG. 29 illustrates a chart showing phosphor-Stat3 of serum starved MS-1 cells incubated for 10 min at 37° C. with VEGF-A or IL-6 in the absence or presence of anti-IL-6 mAb or C3aR-A/C5aR-A.
Numerous past studies have linked VEGF with both IL-6 and p-Stat3 our prior studies by ourselves has shown that C5a induces IL-6 and that IL-6 signaling is interconnected with C3aR/C5aR signaling. To determine if the linkage between VEGF and C3aR/C5aR signaling in ECs involves IL-6, we incubated MS-1 ECs with 1) VEGF-A alone, IL-6 alone, or VEGF-A plus anti-IL-6 mAb, or with 2) IL-6 alone or IL-6 plus C3aR-A/C5aR-A, and assayed cell growth. […] The growth induction of ECs of IL-6, like that of VEGF-A, was abolished by C3aR-A/C5aR-A (FIG. 28). Both VEGF-A and IL-6 induced Stat3 phosphorylation and the Stat3 phosphorylation in both cases was abolished by C3aR/C5aR antagonism (FIG. 29). […] These finding thus indicate that VEGF interconnects with C3aR/C5aR signaling via the induction of IL-6 and its activation of Stat3.

NIH-3T3 cells [1] = test: TGF-β1 production and effect in PDGF-AA treated NIH-3T3 cells; type: cell-based
Excerpt: Antagonizing C3aR/C5aR signal transduction induces the synthesis and activation of TGF-β1. We investigated whether TGF-β1 production might underlie the growth suppression connected with C3aR/C5aR blockade. To test this, 1) we assayed supernatants from NIH-3T3 cells treated with PDGF-AA+anti-C3a/anti-C5a mAbs and 2) following removal of anti-C3a/anti-C5a from the mAb treated NIH-3T3 cell cultures (with protein-G beads), we added supernatants without or with anti-TGF-β1 blocking antibody to fresh cultures of PDGF-AA treated NIH-3T3 cells. […] Activation of latent TGF-β1 can be dependent on Thrombospondin 1 (Tsp-1). […] Collectively, these findings indicate that 1) disruption of C3aR/C5aR signaling evokes TGF-β1 production, 2) TGF-β1 enters into an autocrine signaling loop, and 3) C3aR/C5aR signals and TGF-β1 signals oppose each other in regulating PDGF induced growth.

NIH-3T3 cells [2] = test: C5a ELISA of NIH-3T3 culture supernatants; type: cell-based; details: PDGF-AA treated cells
Method: FIG. 31 illustrates charts showing: (A) C5a (17 ng/mL) added to NIH-3T3 cells. Bars represent 72 hr counts. (B) PDGF-AA was added to NIH-3T3 cells and a 72 hr culture supernatants were assayed for C5a by ELISA.
PDGF contributes to atherogenesis and plays a central role in neointimal proliferation following EC injury. In view of the growth difference of primary cultured Daf1^−/−, WT, C3aR^−/−C5aR^−/−, and C3^−/−C5^−/−SMCs, we examined whether C3aR/C5aR signals are interconnected with PDGF growth induction. For these studies, we utilized NIH-3T3 fibroblasts (which express PDGFR-αα) in conjunction with PDGF-AA. Following determination of optimal PDGF-AA doses, we incubated 1×10^5 cells/well in triplicate with 30 ng/ml of PDGF-AA±10 ng/ml of C3aR and C5aR antagonists (C3aR-A/C5aR-A), 10 ng/ml of anti-C3a/anti-C5a mAbs or respective controls, after which we quantified cell growth by counting cell numbers over time. […] To directly establish whether C5aR signals augment PDGF-AA growth signaling, we 1) quantified the effect of added C5a one growth, and 2) assayed C5a in culture supernatants of PDGF-AA treated cells. […] Because the dependence of PDGF growth induction on C3aR/C5aR signaling could be indirect, i.e., a consequence of its requirement for viability, we performed cell cycle assays.

C3aR−/−C5aR−/− ECs = test: Growth of C3aR-/-C5aR-/- primary ECs; type: cell-based, mice; details: without or with added C5a

ANGIOMAX: thrombin specific inhibitor
T cell activation (T cell): virtually abolish
proliferation of ECs / VEGF induced EC growth induction (ECs): abolish

C3a: complement activation fragment (anaphylatoxin) added to cells
production of AP components by ECs (HUVEC): more AP components
transcription of C3 (HUVEC): increased

IL-6: cytokine added to MS-1 cells (10 ng/ml)
induction of EC growth (MS-1 ECs): comparably to VEGF-A
Stat3 phosphorylation (Stat3): induced

TGF-β1: active TGF-β1 elicited in supernatants of mAb treated NIH-3T3 cells
suppression of PDGF-AA induced growth (NIH-3T3 cells [1]; elicited TGF-β1 in transferred supernatants): 5 fold

NC(N)=NCCC[C@H](NC(=O)[C@@H]1CCCN1C(=O)[C@H](N)Cc1ccccc1)C(=O)CCl [PPACK]
T cell activation (T cell): virtually abolish
proliferation of ECs / VEGF induced EC growth induction (ECs): abolish

PDGF-AA: platelet derived growth factor, 30 ng/ml
suppression of TGF-β1 mRNA transcription (NIH-3T3 cells [1]; RT-PCR of PDGF-AA treated cells): ~3 fold
C5a generation by NIH-3T3 cells (NIH-3T3 cells [2]): amplified

Cc1cc(C)c(/C=C2\C(=O)Nc3ccccc32)[nH]1 [SU5416]
growth of C3aR−/−C5aR−/− ECs (C3aR−/−C5aR−/− ECs): abolished
